We go through four molecules from patent US11414449B2, “Hydrated and anhydrous polymorphs of 2′-O- fucosyllactose and their production methods” (BASF SE, priority 2012, dated 2022).

SMILES strings stand for the structures.

What all share (format): physicochemical
Series [1] can be described thus: re-analysis of example batches after storage (KF, LOD). How it is done:
(§1) Determination of water content in the product based on a specific oxidation-reduction reaction between the water present in the sample and the Karl Fischer reagent.
(§2) About 200 mg of the 2′-FL were weighed into the appropriate container, the balance was set to zero and the substance transferred into the previously dehydrated cell. The empty container was placed on the pan of the balance to determine the exact value of the substance transferred into the cell. Set the measured weight into the formula: % H2O=V×T×F/PC
(§3) Gravimetric method with heating of the sample using a halogen lamp

Series [2] in a line: accelerated stability of Polymorph A, water content by Karl-Fischer over time. The conditions noted are these: accelerated stability (75 ± 5% RH). How it is done: as §1, §2
The nature of series [3]: stability studies of Polymorph A (accelerated and 25°C/60% RH): KF, loss on drying, XRPD after storage. The conditions noted are these: 40°±2° C., 75±5% RH and 25°±2° C., 60±5% RH. The procedure:
In particular Polymorph A, was subjected to studies of stability both accelerated at 40°±2° C.; 75±5% RH and at 25°±2° C., 60±5% RH.
In particular, the percentage of water takes values between 5% and 7%, preferably between 5.5% and 6.5%, still more preferably between 5.7% and 6.2% (See Table 1).
as §1, §3

As to `C[C@@H]1OC(O[C@H]2[C@H](O[C@H]3[C@H](O)[C@@H](O)C(O)O[C@@H]3CO)O[C@H](CO)[C@H](O)[C@@H]2O)[C@@H](O)[C@H](O)[C@@H]1O` (mixture of isomers) [Example 4, 2′-O-fucosyllactose], the “KF after 6 months” value in series [1] (after 6 months) is reported as 6.00%. Further, in series [1] (after 6 months, LOD Method 2), the “LOD after 6 months (Method 2)” value is given as 2.17%.

As for `C[C@@H]1OC(O[C@H]2[C@H](O[C@H]3[C@H](O)[C@@H](O)C(O)O[C@@H]3CO)O[C@H](CO)[C@H](O)[C@@H]2O)[C@@H](O)[C@H](O)[C@@H]1O` (mixture of isomers) [Example 19, 2′-O-fucosyllactose], the “KF after 2 months” value in series [1] (after 2 months) is on record as 0.34%.

Regarding `C[C@@H]1OC(O[C@H]2[C@H](O[C@H]3[C@H](O)[C@@H](O)C(O)O[C@@H]3CO)O[C@H](CO)[C@H](O)[C@@H]2O)[C@@H](O)[C@H](O)[C@@H]1O` (mixture of isomers) [Example 21, 2′-O-fucosyllactose], in series [1] (after 10 days in a petri dish), the “KF after 10 days in a petri dish” value came out at 0.67%.

On to `C[C@@H]1OC(O[C@H]2[C@H](O[C@H]3[C@H](O)[C@@H](O)C(O)O[C@@H]3CO)O[C@H](CO)[C@H](O)[C@@H]2O)[C@@H](O)[C@H](O)[C@@H]1O` (mixture of isomers) [Polymorph A, 2′-O-fucosyllactose], for which the KF % in series [2] (time 0 months) is 4.2%; in series [2] (time 1 month), 6.0%; in series [2] (time 2 months) it was 6.0%; in series [2] (time 3 months), 5.7%; in series [2] (time 4 months), 5.9%; in series [2] (time 5 months), 6.0%. In addition, the KF % in series [2] (time 6 months) was 6.0%. For the same molecule, the “XRPD spectrum of stored samples (crystal form retention)” value in series [3] is listed as “continues to show the characteristic peaks of Polymorph A”. For the same molecule, the “humidity uptake in stability studies (KF trend)” value in series [3] (1-3 months) is recorded as “tends to adsorb humidity immediately”.
